Results as given in US10406243B2, “Methods of treatment comprising a polyrotaxane and medicinal composition” (National University Corporation Tokyo Medical and Dental …, priority 2013, dated 2019).

Experiments:
NPC1 cells [1] = experiment: LC3 and p62 expressions by Western blotting (Test Example 9); assay type: cell-based, human
Procedure: The expressions of LC3 and p62 in the following cells were assayed by Western blotting as follows.
(§1) The cells were seeded on a 12-well plate (Nunc) (cell count: 1×10^5 cells/well), and incubated at 37° C. under a 5% CO2 atmosphere for one day, followed by the addition of the following samples and another 24-hour incubation.
(§2) After the culturing, the cells were washed with PBS, and then 150 μL of RIPA buffer (Wako) containing 1% protease inhibitor cocktail (Nacalai Tesque) and 1% Phosphatase inhibitor cocktail (Nacalai Tesque) was added, and the cells were lysed by shaking for 30 minutes. The cell lysate was centrifuged for 10 minutes at 15,000 rpm, and the supernatant was collected.
(§3) 10 μL of the supernatant and 2.5 μL of Laemmli buffer (Bio-Rad) were mixed, and applied to a 12% acrylamide gel. Then, electrophoresis was performed at 150∇ for 45 minutes. Then, proteins were transferred to a polyvinylidene fluoride (PVDF) membrane (Bio-Rad) using trans-blot Turbo Blotting System (Bio-Rad). Then, blocking was carried out with 5% skim milk solution (Wako) for an hour.
After the blocking treatment, PVDF membranes were treated at 4° C. for one day with an antibody against LC3 which is an indicator of autophagy (purchased from MBL), an antibody against p62/SQSTM1 which is a selective autophagy substrate (purchased from MBL), and an anti-β-actin antibody (Sigma-Aldrich), each diluted with 1% skim milk solution.
After three washes with PBS, the PVDF membranes were treated for 1 hour at room temperature with HRP-conjugated goat anti-rabbit IgG diluted in 1% skim milk solution.
After three washes with PBS, the PVDF membranes were treated with Pierce Western Blotting Substrate, and the images were taken with ImageQuant LAS 500 system (GE Healthcare Bioscience).
For comparison, the following cases were also examined in a similar manner: a case where NHDF cells were used and none of the samples were added; a case where NHDF cells were used and Bafilomycin A1 (hereinafter, referred to as “Baf A”) was added instead of the sample; a case where NPC1 cells were used and none of the samples were added; and a case where NPC1 cells were used and Baf A was added instead of the sample.
(§4) Each of the relative expression levels was determined from the intensity of Western blot band. […]

[2] = tested on: NPC1 cells (human dermal fibroblasts derived from a Niemann-Pick type C disease patient); experiment: Accumulation of cholesterol, filipin staining observed by confocal microscope (Test Example 2); assay type: cell-based; details: equivalent to 100 μM of cyclodextrin, 24 hours
Procedure: Normal human dermal fibroblasts (hereinafter, referred to as “NHDF” or “NHDF cells”; obtained from Coriell Institute; number: GM05659) and human dermal fibroblasts derived from a Niemann-Pick type C disease patient (hereinafter, referred to as “NPC1” or “NPC1 cells”; obtained from Coriell Institute; number: GM03123) were used as follows to examine the cellular accumulation of cholesterol.
After the incubation, the cells were fixed with 4% paraformaldehyde, and following the addition of filipin (Polysciences) in PBS adjusted to 100 μg/mL, were allowed to stand for 45 minutes at room temperature. After washing the cells three times with PBS, the localization of cholesterol was observed by using a confocal laser scanning microscope, FluoView FV10i (Olympus). Moreover, the amount of intracellular cholesterol accumulation was determined.
In each image, the part shown in white indicates cholesterol. The amount added of each sample is equivalent to 100 μM of cyclodextrin.

NPC1 cells [3] = experiment: Cholesterol removal effect, dose-response (Test Examples 5, 6, 7-1); assay type: cell-based, human; details: 24 hours, concentration as cyclodextrin
Procedure: Then, the cells were washed twice with phosphate-buffered solution, and 0.25% trypsin-EDTA solution (Gibco) was added to each well to peel the cells. The cells were collected into a 1.5 mL tube, and washed twice with phosphate buffered saline. Then, cell lysis solution (including 50 mM phosphate buffer solution, 500 mM sodium chloride, 25 mM cholic acid, and 0.5% Triton X-100) was added to each tube to lyse the cells.
In each cell lysate, the total cholesterol was quantified by Amplex Red Cholesterol Assay Kit (Invitrogen), and the total protein was quantified by micro BCA Protein Assay Kit (Thermo Fisher Scientific). The total cellular cholesterol content is shown as total cholesterol content (nmol)/total protein content (mg).
Similar assays to Test Example 5 were performed except that the following samples were used in order to investigate how the type of degradable linkage in polyrotaxane influences to cholesterol removal from NPC1.
Similar assays to Test Example 5 were performed except that the following samples were used in order to investigate how the type of functional group introduced into cyclodextrins in polyrotaxane influences to cholesterol removal from NPC1.

[4] = tested on: NPC1 cells (human dermal fibroblasts derived from a Niemann-Pick type C disease patient); experiment: Quantification of intracellular cholesterol accumulation, Amplex Red Cholesterol Assay Kit (Test Example 2); assay type: cell-based; details: equivalent to 100 μM of cyclodextrin, 24 hours
Procedure: The quantification of the amount of intracellular cholesterol accumulation was carried out as follows.
After the incubation the cells were lysed with cell lysis buffer to obtain cell lysates, and the intracellular cholesterol was determined by Amplex Red Cholesterol Assay Kit (Invitrogen) while the total cellular protein content was determined with Micro BCA Protein Assay Kit (Thermo Fisher Scientific). The total intracellular cholesterol content is shown as total cholesterol content (nmol)/total protein content (mg).
In FIG. 9, in order from the left, the results on the following are shown: “the case where NPC1 cells were used and none of the samples were added (non-treated)”, “the case where NPC1 cells were used and HP-β-CD was added as a sample (HP-β-CD added)”, “the case where NPC1 cells were used and DM-β-CD was added as a sample (DM-β-CD added)”, “the case where NPC1 cells were used and HE-SS-PRX was added as a sample (HE-SS-PRX added)”, “the case where NPC1 cells were used and HE-ace-PRX was added as a sample (HE-ace-PRX added)”, “the case where NPC1 cells were used and HE-PRX was added as a sample (HE-PRX added)”, and “the case where NPC1 cells were used and HE-SS-PRX was added as a sample (HE-SS-PRX added)”, and “the case where NHDF cells were used and none of the samples were added (non-treated)”. The amount added of each sample is equivalent to 100 μM of cyclodextrin.

[5] = tested on: Fabry disease patient-derived dermal fibroblasts; experiment: LC3-II expression by Western blotting (Test Example 9); assay type: cell-based, human; details: HP-β-CD 10 mM, HEE-SS-PRX 1 mM
Procedure: (4) Fabry disease patient-derived dermal fibroblasts (obtained from Coriell Institute; number: GM00107)
as §1, §2
as §3, with “hour. […]” for “hour.”
as §4

[6] = tested on: NPC disease patient-derived NPC2 mutant dermal fibroblasts; experiment: as above; assay type: cell-based, human; details: NPC2-mutated fibroblasts; HP-β-CD 10 mM, HEE-SS-PRX 1 mM
Procedure: (3) NPC disease patient-derived NPC2 mutant dermal fibroblasts (obtained from Coriell Institute; number: GM18455)
as §1, §2
as §3, with “hour. […]” for “hour.”
as §4

NPC1 cells [7] = experiment: Fusion of autophagosomes and lysosomes, co-localization of mRFP-LC3 and LAMP1 (Test Example 11); assay type: cell-based, human; details: 24 hours, HP-β-CD 10 mM, HEE-SS-PRX equivalent to 1 mM cyclodextrin
NPC1 cells [8] = experiment: Observation of autolysosome formation, mRFP-EGFP-LC3 (Test Example 10); assay type: cell-based, human; details: 24 hours, HP-β-CD 10 mM, HEE-SS-PRX equivalent to 1 mM cyclodextrin
[9] = tested on: NPC disease patient-derived cells; details: cited from earlier work
[10] = tested on: GM1 gangliosidosis patient-derived dermal fibroblasts; experiment: LC3-II expression by Western blotting (Test Example 9); assay type: cell-based, human; details: HP-β-CD 10 mM, HEE-SS-PRX 1 mM
Procedure: (5) GM1 gangliosidosis patient-derived dermal fibroblasts (obtained from Coriell Institute; number: GM03589)
as §1, §2
as §3, with “hour. […]” for “hour.”
as §4

[11] = tested on: Npc1-deficient mice (Npc1−/− mice); details: cited from earlier work
NPC1 cells [12] = experiment: Observation of autophagosomes by LC3 immunostaining (Test Example 8); assay type: cell-based, human; details: 24 hours, HP-β-CD 10 mM, HEE-SS-PRX equivalent to 1 mM β-CD
Procedure: NPC1 cells were seeded on a 35 mm glass bottom dish (IWAKI) (cell count: 1.5×10^4 cells/dish), and incubated at 37° C. under a 5% CO2 atmosphere for one day, followed by the addition of the following samples and another 24-hour incubation.
After the culturing, the cells were fixed with 4% paraformaldehyde (Wako) for 10 minutes, treated with 50 μg/ml digitonin solution (Tokyo Chemical Industry) for 5 minutes to permeabilize the plasma membrane, and blocked with 1% BSA/PBS solution for 30 minutes.
The cells were then treated with Rabbit polyclonal anti-LC3 antibody (MBL) diluted to 1:200 with 1% BSA for one day at 4° C. After washing with PBS, the cells were stained with Alexa Fluor 488-conjugated goat anti-rabbit IgG (Abeam) (diluted to 1:1,000 with 1% BSA solution) for 30 minutes. After washing with PBS, the cells were observed by FluoView FV-10i (Olympus).
In FIG. 16E, in order from the left, the results on the following are shown: “the case where NHDF cells were used and none of the samples were added”, “the case where NPC1 cells were used and HP-β-CD was added as a sample (amount added: 10 mM)”, “the case where NPC1 cells were used and […] was added as a sample (amount added: amount equivalent to 1 mM concentration of β-CD on HEE-SS-PRX)”.

[13] = NHDF or NPC1 cells, Baf A added instead of the sample

| Compound | LC3 level (NPC1 cells [1]; [13]) | p62 level (NPC1 cells [1]; [13]) | Filipin fluorescence intensity (intracellular cholesterol) [2] | Half maximal effective concentration (ED50) from dose-response curve for cholesterol accumulation (NPC1 cells [3]) | Amount of intracellular cholesterol accumulation (total cholesterol/total protein) [4] | LC3-II level [5] | LC3-II level [6] | Expression level of p62 (NPC1 cells [1]; NPC1 cells, 24 hours, 10 mM) | Expression level of LC3-II (NPC1 cells [1]; NPC1 cells, 24 hours, HP-β-CD 0.1 to 10 mM, HEE-SS-PRX 0.01 to 1 mM) | Co-localization rate of mRFP-LC3 and LAMP1 (NPC1 cells [7]) | Number of autolysosomes (NPC1 cells [8]) | Number of autophagosomes (NPC1 cells [8]) | Amount of cholesterol in cells [9] | LC3-II level [10] | Amount of cholesterol accumulated in each tissue [11] | Survival [11] | Number of LC3-positive vesicles in a cell (NPC1 cells [12]) |
| --- | --- | --- | --- | --- | --- | --- | --- | --- | --- | --- | --- | --- | --- | --- | --- | --- | --- |
| CO/C1=C\C(C)=C\[C@@H](C)[C@@H](O)[C@@H](C)C/C(C)=C/C=C/[C@H](OC)[C@@H]([C@@H](C)[C@@H](O)[C@H](C)[C@@]2(O)C[C@@H](O)[C@H](C)[C@@H](C(C)C)O2)OC1=O [Baf A, Bafilomycin A1] | significant increases | significant increases | – | – | – | – | – | – | – | – | – | – | – | – | – | – | – |
| COC[C@H]1O[C@@H]2O[C@H]3[C@H](O)[C@@H](OC)[C@@H](O[C@H]4[C@H](O)[C@@H](OC)[C@@H](O[C@H]5[C@H](O)[C@@H](OC)[C@@H](O[C@H]6[C@H](O)[C@@H](OC)[C@@H](O[C@H]7[C@H](O)[C@@H](OC)[C@@H](O[C@H]8[C@H](O)[C@@H](OC)[C@@H](O[C@H]1[C@H](O)[C@H]2OC)O[C@@H]8COC)O[C@@H]7COC)O[C@@H]6COC)O[C@@H]5COC)O[C@@H]4COC)O[C@@H]3COC [DM-β-CD, 2,6-dimethyl-β-cyclodextrin] | – | – | reduced | 230 µM | capable of removing more cholesterol than HP-β-CD | – | – | – | – | – | – | – | – | – | – | – | – |
| Hydroxypropyl β-cyclodextrin [HP-β-CD] | – | – | – | 2590 µM | subtle reduction of cholesterol | increase in LC3-II | increase in LC3-II | significantly increased | increased the expression of LC3-II in a concentration dependent manner | low | no change in the number of autolysosomes | increase in the number of autophagosomes | the amount of cholesterol in cells decreases | increase in LC3-II | decreases the amount of cholesterol accumulated in each tissue | extends the survival | further increased counts of LC3-positive vesicles |
